Structures can show the parent of a compound that is named as a salt. Where two headings read alike, the source gives them in different places.
Legend:
[1] = test system: iCell cardiomyocytes (human iPSC-derived cardiomyocytes); assay: High-content imaging of cytotoxicity and mitochondrial integrity in iPSC-CMs; assay type: cell-based; settings: Homo sapiens, Cardiomyocyte, cardiomyocytes (cm)
Outline: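 Cardiomyocytes grown on gelatinized 384-well plates received fresh medium on the experiment day and were then exposed to chemicals at 0.01–100μM. Nuclei and mitochondria were labeled with Hoechst 33342 and MitoTracker™ Orange, then fixed, and imaged on an ImageXpress® Micro Confocal system. Four-parameter logistic concentration–response fits in R, with a one-standard-deviation vehicle cutoff, gave point-of-departure values.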

[2] = test system: iPSC-CMs, iPSC-ECs and HUVECs phenotypes; assay: ToxPi 2.0 integration of POD values and physicochemical descriptors; parameters: species or system human; settings: ToxPi-scaled (0-1) score; for huvec.cyto.24hr / huvec.mito.24hr / huvec.mitoint.24hr / huvec.nma.24hr / huvec.tc.24hr / huvec.mtl.18hr / huvec.tlps.18hr / huvec.tta.18hr / huvec.ttl.18hr: HUVECs; for huvec.mtl.18hr / huvec.tlps.18hr / huvec.tta.18hr / huvec.ttl.18hr / endo.mtl.18hr / endo.tlps.18hr / endo.tta.18hr / endo.ttl.18hr: tube formation; for cm.amp.avg.90min / cm.amp.cv.90min / cm.bpm.90min / cm.cam.90min / cm.decay.rise.90min / cm.mii.90min / cm.mito.90min / cm.spacing.cv.90min / cm.tc.90min / cm.amp.avg.24hrs / cm.amp.cv.24hrs / cm.bpm.24hrs / cm.cam.24hrs / cm.decay.rise.24hrs / cm.mii.24hrs / cm.mito.24hrs / cm.spacing.cv.24hrs / cm.tc.24hrs: iPSC cardiomyocytes; for endo.cyto.24hr / endo.mito.24hr / endo.mitoint.24hr / endo.nma.24hr / endo.tc.24hr / endo.mtl.18hr / endo.tlps.18hr / endo.tta.18hr / endo.ttl.18hr: iPSC endothelial cells
Text: Phenotypic responses were quantitatively assessed using concentration–response modeling as detailed elsewhere ([Sirenko et al. 2017]). Briefly, phenotypic readouts were normalized to vehicle controls and fit to a four-parameter logistic model in R studio software (version 3.1.1; R Development Core Team). Following EPA guidance on dose–response modeling, a cutoff of one standard deviation across means of vehicle control (i.e., 0.5% vol/vol DMSO in cell culture media) wells was applied to determine the point-of-departure (POD) values ([U.S. EPA 2012]). In the absence of a concentration–response, the highest tested concentration (i.e., 100μM ) was assigned as “no observable adverse effect level.” The concentration–response assessment R script, as well as templates for vehicle and concentration–response data, are available as a supplement to Sirenko et al. ([2017]). The ability of physicochemical properties to predict differences in PODs were evaluated by multiregression and mixed-effects modeling using R.
POD values were then integrated using ToxPi 2.0 ([Marvel et al. 2018]) software. In ToxPi, each slice is representative of cell type– and time-point–specific phenotypes. The area of each slice is proportional to the relative value (e.g., bioactivity or physicochemical descriptor value) of the chemical within the data set. ToxPi scores were used to rank PCBs and their metabolites according to their overall bioactivity and to determine variability in total observable biological responses and chemical characteristics for each major metabolite class and chlorination status (mono-, hexa-chlorinated). Additional visualizations such as dumbbell and principal components analysis plots were generated in R Studio (version 1.1.456; R version 3.5.1; R Development Core Team) using the ggplot2 package.

[3] = 1.5 h, cam, 90 min, read-out: POD cm.cam.90min
[4] = 1.5 h, mii, 90 min, read-out: POD cm.mii.90min
[5] = 1.5 h, mito, 90 min, read-out: POD cm.mito.90min
[6] = 1.5 h, tc, 90 min, read-out: POD cm.tc.90min
[7] = 24 h, cam, 24 hrs, read-out: POD cm.cam.24hrs
[8] = 24 h, mii, 24 hrs, read-out: POD cm.mii.24hrs
[9] = 24 h, mito, 24 hrs, read-out: POD cm.mito.24hrs
[10] = 24 h, tc, 24 hrs, read-out: POD cm.tc.24hrs

Work on `Oc1cccc(-c2ccc(Cl)cc2)c1` [3'-OH-PCB 3] yielded a minimal effective concentration [1, 3] of 16 µM, a minimal effective concentration [1, 4] of 35 µM and a minimal effective concentration [1, 5] of 15 µM. It also gave a minimal effective concentration [1, 6] of 14.8 µM, a minimal effective concentration [1, 7] of 14.1 µM and a minimal effective concentration [1, 8] of 23 µM. For the same compound, the minimal effective concentration [1, 9] was 14 µM, the minimal effective concentration [1, 10] was 15.6 µM and the huvec.cyto.24hr [2] was 0.4672. It also gave a huvec.mito.24hr [2] of 0.5506, a huvec.mitoint.24hr [2] of 0.1749 and a huvec.nma.24hr [2] of 1. It also gave a huvec.tc.24hr [2] of 0.4672, a huvec.mtl.18hr [2] of 1 and a huvec.tlps.18hr [2] of 0.8699. For the same compound, the huvec.tta.18hr [2] was 0.6576, the huvec.ttl.18hr [2] was 0.5155 and the cm.amp.avg.90min [2] was 0.6872. It also gave a cm.amp.cv.90min [2] of 0.2705, a cm.bpm.90min [2] of 0.8835 and a cm.cam.90min [2] of 0.7562. The cm.decay.rise.90min [2] was 0.4777, the cm.mii.90min [2] was 0.3912 and the cm.mito.90min [2] was 0.7743. The cm.spacing.cv.90min [2] was 0.07935, the cm.tc.90min [2] was 0.7836 and the cm.amp.avg.24hrs [2] was 0.4464. The cm.amp.cv.24hrs [2] was 0.3812, the cm.bpm.24hrs [2] was 0.4553 and the cm.cam.24hrs [2] was 0.2634. For the same compound, the cm.decay.rise.24hrs [2] was 0.8154, the cm.mii.24hrs [2] was 0.3889 and the cm.mito.24hrs [2] was 0.4239. The cm.spacing.cv.24hrs [2] was 0.8008, the cm.tc.24hrs [2] was 0.4277 and the endo.cyto.24hr [2] was 0.1365. For the same compound, the endo.mito.24hr [2] was 0.1365, the endo.mitoint.24hr [2] was 0 and the endo.nma.24hr [2] was 0.4106. The endo.tc.24hr [2] was 0.1112, the endo.mtl.18hr [2] was 0.5876 and the endo.tlps.18hr [2] was 0.7333. For the same compound, the endo.tta.18hr [2] was 0.4844 and the endo.ttl.18hr [2] was 0.4865.
`O=S(=O)(O)Oc1cc(-c2ccccc2)ccc1Cl` [3-PCB 3 sulfate] gave a minimal effective concentration [1, 3] of 100 µM, a minimal effective concentration [1, 4] of 100 µM and a minimal effective concentration [1, 5] of 100 µM. For the same compound, the minimal effective concentration [1, 6] was 100 µM, the minimal effective concentration [1, 7] was 100 µM and the minimal effective concentration [1, 8] was 22.8 µM. The minimal effective concentration [1, 9] was 100 µM, the minimal effective concentration [1, 10] was 100 µM and the huvec.cyto.24hr [2] was 0. For the same compound, the huvec.mito.24hr [2] was 0, the huvec.mitoint.24hr [2] was 0 and the huvec.nma.24hr [2] was 0. For the same compound, the huvec.tc.24hr [2] was 0, the huvec.mtl.18hr [2] was 0.4834 and the huvec.tlps.18hr [2] was 0.07929. The huvec.tta.18hr [2] was 0, the huvec.ttl.18hr [2] was 0.09819 and the cm.amp.avg.90min [2] was 0.1033. It also gave a cm.amp.cv.90min [2] of 0, a cm.bpm.90min [2] of 0 and a cm.cam.90min [2] of 0. The cm.decay.rise.90min [2] was 0, the cm.mii.90min [2] was 0 and the cm.mito.90min [2] was 0. For the same compound, the cm.spacing.cv.90min [2] was 0, the cm.tc.90min [2] was 0 and the cm.amp.avg.24hrs [2] was 0. The cm.amp.cv.24hrs [2] was 0, the cm.bpm.24hrs [2] was 0 and the cm.cam.24hrs [2] was 0. The cm.decay.rise.24hrs [2] was 0, the cm.mii.24hrs [2] was 0.391 and the cm.mito.24hrs [2] was 0. For the same compound, the cm.spacing.cv.24hrs [2] was 0, the cm.tc.24hrs [2] was 0 and the endo.cyto.24hr [2] was 0. For the same compound, the endo.mito.24hr [2] was 0, the endo.mitoint.24hr [2] was 0 and the endo.nma.24hr [2] was 0. For the same compound, the endo.tc.24hr [2] was 0, the endo.mtl.18hr [2] was 0 and the endo.tlps.18hr [2] was 0.4317. It also gave an endo.tta.18hr [2] of 0 and an endo.ttl.18hr [2] of 0.

From publication PMC7377239, “Cardiovascular Effects of Polychlorinated Biphenyls and Their Major Metabolites” (Environmental Health Perspectives, 2020)
